Source: patent publication US4124726A, “Anti-inflammatory agent of benzoyl derivative” (priority 1976, dated 1978)

How the values were obtained:
platelet aggregation = experiment: blood platelet aggregation inhibition, collagen as inducer; assay type: cell-based; settings: 10^-4 mole, rabbit PRP
Source text: Blood platelet aggregation inhibiting effect
Male rabbits (Japan original white strain 3.3 to 3.6 kg) were anesthetized with Thiopental sodium and blood was sampled from the carotid artery.

[1] = system: painful stretchings induced by acetic acid; experiment: acetic acid induced stretching (analgesic effect); settings: 100 mg/kg oral, 0.7% acetic acid i.p., mice
Protocol: Each sample was orally administrated in the dosage of 100 mg/kg before injection of acetic acid.

in vivo = settings: mouse, po
Protocol: Each sample was dissolved in olive oil or dispersed in 1% Tween 20 aqueous solution.

SMILES	Blood platelet agg. inh. (percentage inhibition of platelet aggregation) (platelet aggregation)	Analgesic (percentage diminution of times of painful stretchings) [1]	LD50 at 72 h (in vivo)
CCCCCCCCCCc1ccc(C(=O)c2ccccc2)cc1 [compound 68]	16.5%	–	–
CCCCOc1ccc(C(=O)c2c(C)cc(C)cc2C)cc1 [compound 94]	27.9%	15.8%	500 mg/kg
CCCCCCOc1ccc(C(=O)c2ccc(Cl)cc2)cc1 [compound 138]	–	–	2500 mg/kg
Cc1ccc(C(=O)c2ccc(F)cc2)c(C)c1 [compound 130]	–	–	2000 mg/kg
CCCCCc1ccc(C(=O)c2ccc(CCCCC)cc2)cc1 [compound 111]	10.3%	–	–
Cc1cc(C)c(C(=O)c2ccc(O)cc2)c(C)c1 [compound 108]	28.4%	–	–
CCCCCc1ccc(C(=O)c2ccccc2I)cc1 [compound 156]	–	–	> 10000 mg/kg
Cc1ccc(C(=O)c2ccccc2Br)c(C)c1 [compound 146]	–	–	1000 mg/kg
CCCc1ccc(C(=O)c2ccc(CC)cc2)cc1 [compound 112]	11.8%	–	–
Cc1cc(C)c(C(=O)c2cccc(F)c2)c(C)c1 [compound 125]	–	–	1000 mg/kg
CCc1ccc(C(=O)C(=O)c2ccccc2)cc1 [compound 55]	23.3%	–	–
CCCCCCc1ccc(C(=O)C(=O)c2ccccc2)cc1 [compound 56]	20.3%	20.5%	10000 mg/kg
Cc1ccc(C(=O)c2ccc(Br)cc2)c(C)c1 [compound 152]	–	–	1500 mg/kg
CCc1ccc(C(=O)c2ccc(CC)cc2)cc1 [compound 106]	20.3%	7.3%	1000 mg/kg
CCCCc1ccc(C(=O)c2ccccc2Br)cc1 [compound 143]	–	–	1500 mg/kg
CCCCOc1ccc(C(=O)c2ccc(Cl)cc2)cc1 [compound 137]	–	–	2000 mg/kg
CCCCCCCCCCc1ccc(C(=O)Cc2ccccc2)cc1 [compound 50]	8.7%	–	> 10000 mg/kg
Cc1ccc(C(=O)c2cccc(F)c2)c(C)c1 [compound 126]	–	–	1000 mg/kg
CCCCCCCc1ccc(C(=O)c2ccc(CCCC)cc2)cc1 [compound 100]	22.4%	–	–
C=Cc1ccc(C(=O)c2ccccc2)cc1 [compound 82]	20.5%	–	–
CCCCCCCCc1ccc(C(=O)c2ccc(Br)cc2)cc1 [compound 151]	–	–	2500 mg/kg
CCCCCCCCc1ccc(C(=O)c2ccccc2Cl)cc1 [compound 134]	–	–	3000 mg/kg

SMILES	Blood platelet agg. inh. (percentage inhibition of platelet aggregation) (platelet aggregation)	Analgesic (percentage diminution of times of painful stretchings) [1]	LD50 at 72 h (in vivo)
CCCCc1ccc(C(=O)c2cccc(F)c2)cc1 [compound 123]	–	–	1500 mg/kg
CCCCCc1ccc(C(=O)c2ccccc2Br)cc1 [compound 144]	–	–	1500 mg/kg
CCC(C)c1ccc(C(=O)c2ccccc2F)cc1 (stereo not shown) [compound 119]	–	–	2000 mg/kg
CCCc1ccc(C(=O)c2ccccc2I)cc1 [compound 154]	–	–	> 10000 mg/kg
CCCOc1ccc(C(=O)Cc2ccccc2)cc1 [compound 58]	20.1%	–	–
Cc1cc(C)c(C(=O)c2cccc(I)c2)c(C)c1 [compound 163]	–	–	1500 mg/kg
CCCCCCCCCCCCc1ccc(C(=O)Cc2ccccc2)cc1 [compound 52]	6.8%	–	–
Cc1ccc(C(=O)c2c(C)cc(C)cc2C)cc1 [compound 86]	28.3%	–	–
COc1ccc(C(=O)c2ccccc2F)cc1 [compound 116]	–	–	4000 mg/kg
CCc1ccc(CC)c(C(=O)c2ccccc2)c1 [compound 80]	30.3%	–	–
Cc1cc(C)c(C(=O)c2ccc(F)cc2)c(C)c1 [compound 131]	–	–	2000 mg/kg
Cc1cc(C)c(C(=O)c2ccc(I)cc2)c(C)c1 [compound 166]	–	–	5000 mg/kg
CC(C)(C)c1ccc(C(=O)c2ccccc2F)cc1 [compound 120]	–	–	750 mg/kg
CCCCCCCCCCCc1ccc(C(=O)Cc2ccccc2)cc1 [compound 51]	9.5%	–	–
CCCCCCc1ccc(C(=O)c2ccc(C)cc2)cc1 [compound 36]	15.1%	–	> 10000 mg/kg
CCCCCc1ccc(C(=O)c2cccc(Cl)c2)cc1 [compound 140]	–	–	1000 mg/kg
Cc1cc(C)c(C(=O)c2ccc(Br)cc2)c(C)c1 [compound 153]	–	–	1500 mg/kg
CCCCCCCCc1ccc(C(=O)c2cccc(Cl)c2)cc1 [compound 141]	–	–	2000 mg/kg
Cc1ccc(C(=O)c2cccc(I)c2)c(C)c1 [compound 162]	–	–	1500 mg/kg
CCCCCOc1ccc(C(=O)Cc2ccccc2)cc1 [compound 59]	25.6%	–	–
CCCCc1ccc(C(=O)Cc2ccccc2)cc1 [compound 39]	2.6%	–	> 10000 mg/kg
CCCCc1ccc(CCCC)c(C(=O)c2ccccc2)c1 [compound 77]	25.1%	–	–

SMILES	Blood platelet agg. inh. (percentage inhibition of platelet aggregation) (platelet aggregation)	Analgesic (percentage diminution of times of painful stretchings) [1]	LD50 at 72 h (in vivo)
CCCc1ccc(C(=O)c2cccc(C)c2)cc1 [compound 87]	30.1%	–	–
O=C(c1ccccc1)c1ccc(O)cc1 [compound 109]	13.7%	–	–
CC(C)c1ccc(C(=O)c2ccccc2F)cc1 [compound 117]	–	–	1500 mg/kg
CCCc1ccc(C(=O)c2ccc(Br)cc2)cc1 [compound 150]	–	–	2000 mg/kg
CCCCCCCCc1ccc(C(=O)c2ccc(CCCC)cc2)cc1 [compound 101]	27.9%	–	–
CCOc1ccc(C(=O)c2ccccc2)cc1 [compound 81]	18.3%	–	–
CCCCOc1ccc(C(=O)c2ccc(CCCC)cc2)cc1 [compound 95]	30.0%	–	–
CCCc1ccc(C(=O)c2ccc(CCC)cc2)cc1 [compound 110]	20.5%	–	–
Cc1ccc(C(=O)c2ccccc2)cc1 [compound 65]	21.0%	–	–
Cc1ccc(C(=O)c2ccccc2Cl)c(C)c1 [compound 135]	–	–	1000 mg/kg
CCCCc1ccc(C(=O)c2ccccc2I)cc1 [compound 155]	–	–	> 10000 mg/kg
CCCCCCCCc1ccc(C(=O)c2ccc(I)cc2)cc1 [compound 164]	–	–	> 10000 mg/kg
CCCc1ccc(C(=O)c2ccccc2Cl)cc1 [compound 132]	–	–	2000 mg/kg
CCCc1ccc(C(=O)c2c(C)cc(C)cc2C)cc1 [compound 97]	26.8%	–	–
CCCCc1ccc(C(=O)c2cccc(C)c2)cc1 [compound 88]	24.5%	–	–
Cc1ccc(C(=O)c2ccccc2I)c(C)c1 [compound 158]	–	–	2000 mg/kg
O=C(c1ccc(F)cc1)c1ccccc1Cl [compound 115]	25.4%	–	–
CCCCCCCCCCCCc1ccc(C(=O)c2ccccc2)cc1 [compound 69]	13.5%	–	–
CCCCc1ccc(C(=O)c2cccc(I)c2)cc1 [compound 160]	–	–	2500 mg/kg
Cc1ccc(C(=O)Cc2ccccc2)cc1 [compound 48]	20.5%	–	–
CCCCCCCCc1ccc(C(=O)c2ccc(F)cc2)cc1 [compound 129]	–	–	> 10000 mg/kg
CCCCCCCCCc1ccc(C(=O)c2ccc(CCCC)cc2)cc1 [compound 102]	30.4%	–	–

SMILES	Blood platelet agg. inh. (percentage inhibition of platelet aggregation) (platelet aggregation)	Analgesic (percentage diminution of times of painful stretchings) [1]	LD50 at 72 h (in vivo)
CCCCCCCCc1ccc(C(=O)c2cccc(Br)c2)cc1 [compound 148]	–	–	2000 mg/kg
COc1ccc(C(=O)c2ccc(Cl)cc2)cc1 [compound 136]	–	–	2000 mg/kg
CCCc1ccc(C(=O)c2ccc(C)cc2C)cc1 [compound 96]	28.5%	–	–
CCCCCCCCc1ccc(C(=O)c2ccccc2Br)cc1 [compound 145]	–	–	2000 mg/kg
CCCc1ccc(C(=O)c2cccc(Cl)c2)cc1 [compound 139]	–	–	1000 mg/kg
CCC(C)(C)c1ccc(C(=O)c2ccccc2F)cc1 [compound 122]	–	–	2000 mg/kg
CCCCCc1ccc(C(=O)c2ccc(F)cc2)cc1 [compound 128]	–	–	4000 mg/kg
CCCCCCCCc1ccc(C(=O)c2ccccc2I)cc1 [compound 157]	–	–	> 10000 mg/kg
CCCCCc1ccc(C(=O)c2ccccc2Cl)cc1 [compound 133]	–	–	2000 mg/kg
Cc1ccc(C(=O)c2cccc(Br)c2)c(C)c1 [compound 149]	–	–	500 mg/kg
CCCCc1ccc(C(=O)c2ccc(F)cc2)cc1 [compound 127]	–	–	5000 mg/kg
CC(C)Cc1ccc(C(=O)c2ccccc2F)cc1 [compound 118]	–	–	2000 mg/kg
Cc1cc(C)c(C(=O)c2ccccc2I)c(C)c1 [compound 159]	–	–	1000 mg/kg
Cc1ccc(C(=O)c2ccc(C)cc2)cc1 [compound 83]	27.6%	–	–
CCCCCCCCCCCc1ccc(C(=O)c2ccccc2)cc1 [compound 71]	19.5%	–	–
COc1ccc(C(=O)Cc2ccc(Cl)cc2)cc1 [compound 60]	4.0%	–	–
Cc1ccc(C(=O)c2ccc(I)cc2)c(C)c1 [compound 165]	–	–	5000 mg/kg
Cc1cc(C)c(C(=O)c2ccccc2Br)c(C)c1 [compound 147]	–	–	1000 mg/kg
CCCCCc1ccc(C(=O)c2cccc(F)c2)cc1 [compound 124]	–	–	3000 mg/kg
Cc1cc(C)c(C)c(C(=O)c2ccccc2)c1C [compound 78]	19.9%	–	–
CCCc1ccc(C(=O)c2ccc(OC)cc2)cc1 [compound 93]	24.4%	–	–
CCCc1ccc(C(=O)c2ccccc2Br)cc1 [compound 142]	–	–	1500 mg/kg
